Experimental data: patent US6984404B1, “Methods for preparing coated drug particles and pharmaceutical formulations thereof” (University of Florida Research Foundation, Inc., priority 1998, dated 2006)
Where “and” joins values, the source holds several entries; their conditions need not be identical. Identical values can stand only once. Like-named read-outs stand apart in the source and are kept apart here. One block for each compound: values may come before it.

Columns and labels:
[1] = Plasma concentration after intratracheal administration in rats; format: in vivo
Procedure: Characterization of films deposited on silicon wafers or glass slides was performed using SEM. FTIR, and NMR to characterize polymer structure and morphology. The BUD10 and BUD25 coated powders were tested in vitro to assess differences in the dissolution rates. […] Comparison of the plasma concentrations after IT administration of the coated powders with uncoated BUD powders and IV administration of BUD solution, as well as with FP after IT administration, were performed to compare absorption rates. Finally, the pulmonary targeting of coating BUD25 powders after IT administration was compared with the pulmonary targeting of uncoated BUD and FP powders after IT administration and BUD solution after IV administration. Verification of deposited polymer on silicon wafers using NMR and FTIR was used to characterize molecular structure.

[2] = cited from earlier work; for half-life after intravenous administration: intravenous (FP: terminal half-life)
plasma protein = settings: cited from earlier work
[3] = cited from earlier work; for pulmonary deposition ratio, MDI: metered dose inhaler (TA: Azmacort MDI with spacer)
[4] = molecular target: T1, glucocorticoid receptor (GR) (Homo sapiens, UniProt P04150); settings: cited from earlier work
T1 sequence (P04150 1-777): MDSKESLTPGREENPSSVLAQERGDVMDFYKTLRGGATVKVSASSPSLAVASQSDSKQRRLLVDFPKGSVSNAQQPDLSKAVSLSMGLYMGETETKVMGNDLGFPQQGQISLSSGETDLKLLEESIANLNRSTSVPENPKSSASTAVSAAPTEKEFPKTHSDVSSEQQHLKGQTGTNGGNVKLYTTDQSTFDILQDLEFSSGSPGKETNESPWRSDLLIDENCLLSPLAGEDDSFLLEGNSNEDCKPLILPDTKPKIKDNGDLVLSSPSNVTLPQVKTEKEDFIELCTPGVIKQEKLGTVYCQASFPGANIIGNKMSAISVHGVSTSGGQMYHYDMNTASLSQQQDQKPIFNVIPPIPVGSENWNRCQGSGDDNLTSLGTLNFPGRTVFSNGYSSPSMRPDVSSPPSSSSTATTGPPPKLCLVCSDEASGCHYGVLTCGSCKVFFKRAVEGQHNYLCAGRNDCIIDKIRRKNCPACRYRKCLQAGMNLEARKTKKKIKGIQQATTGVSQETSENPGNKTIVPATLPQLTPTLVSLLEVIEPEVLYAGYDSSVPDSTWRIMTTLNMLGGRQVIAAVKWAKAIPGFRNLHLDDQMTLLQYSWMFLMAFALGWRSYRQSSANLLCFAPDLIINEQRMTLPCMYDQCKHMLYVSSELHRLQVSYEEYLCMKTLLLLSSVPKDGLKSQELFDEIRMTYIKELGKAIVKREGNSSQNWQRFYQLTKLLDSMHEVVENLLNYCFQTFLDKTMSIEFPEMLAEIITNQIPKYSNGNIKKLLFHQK

[5] = rats; cited from earlier work

- time of peak plasma concentration [1]: 0.5 h
- MAT ([1]; calculated): 0.3 h
Compound: CCCC1O[C@@H]2C[C@H]3[C@@H]4CCC5=CC(=O)C=C[C@]5(C)[C@H]4[C@@H](O)C[C@]3(C)[C@]2(C(=O)CO)O1 (stereo partly shown) [Budesonide, budesonide]
- Cmax ([2]; after inhalation via Turbohaler): 3.5 nM
- plasma half-life ([2]; approximately the same after intravenous and inhalation administration): 2.8 h
- oral bioavailability ([2]; in vivo): 11%
- volume of distribution at steady state ([2]; in vivo): 183 L
- first-pass metabolism of an oral dose ([2]; oral): About 89%
- plasma protein binding (plasma protein): 88%

Compound: CCC(=O)O[C@]1(C(=O)SCF)[C@H](C)C[C@H]2[C@@H]3C[C@H](F)C4=CC(=O)C=C[C@]4(C)[C@@]3(F)[C@@H](O)C[C@@]21C [FP, fluticasone propionate]
- t1/2 (dose-dependent) ([2]; Möllmann et al., 1998): 5.2 to 7.4 h and 6.0 ± 0.7 h
- terminal half-life after inhalation ([2]; Thorsson et al. 1997): 10 h
- mean absorption time (MAT) ([2]; after inhalation): 4.9 h
- oral bioavailability ([2]; in vivo): less than 1%
- clearance ([2]; in vivo): 66 L/h
- drug excreted in the feces ([2]; in vivo): 87–100%
- excreted as the inactive 17-carboxylic acid ([2]; in vivo): 340%
- volume of distribution at steady state ([2]; in vivo): 318 L
- overall bioavailability after inhalation ([2]; inhalation): 10–15%
- mean residence time after inhaled administration (AUMC/AUC) ([2]; inhaled): 9.1 ± 1.1 h and 7.8 to 11 h
- half-life after intravenous administration [2]: 7.7 to 8.3 h
- plasma protein binding (plasma protein): 90%
- pulmonary deposition ratio, DPI ([3]; dry powder inhaler): 15%
- pulmonary deposition ratio, MDI [3]: 26%
- receptor binding affinity (RBA) [4]: 1800

Compound: CC1(C)O[C@@H]2C[C@H]3[C@@H]4CCC5=CC(=O)C=C[C@]5(C)[C@@]4(F)[C@@H](O)C[C@]3(C)[C@]2(C(=O)CO)O1 [TA, triamcinolone acetonide]
- mean residence time ([2]; after intravenous administration): 2.7 h
- absorption of suspension in the lungs ([2]; by the difference in half-lives of intravenous versus inhaled doses): ~2 h
- oral bioavailability ([2]; in vivo): 20–25%
- clearance ([2]; in vivo): 37.3 L/h
- volume of distribution ([2]; in vivo): 100 to 150 L
- half-life after inhaled dose ([2]; inhaled): 3.6 h
- half-life after intravenous administration [2]: 1.4 to 2.0 h
- plasma protein binding (plasma protein): 71%
- pulmonary deposition ratio, MDI [3]: approximately 22%

Compound: CC(C)NCC(O)c1ccc(O)c(O)c1 (stereo not shown) [free isopreternol, isoproterenol]
- duration of amelioration of bronchoconstriction [5]: 30 min

Compound: Triamcinolone acetonide phosphate [TAP]
- plasma half-life ([2]; IV administration in humans): 0.05 to 0.067 h
